Legend:
GM1 production = assay: cells; type: cell-based; details: Homo sapiens, Jurkat, 72 h
[1] = biological target: glucosylceramide synthase (GCS) (Homo sapiens (Human), UniProt Q16739); assay: Evaluation of inhibitory activities against GCS (enzyme reaction with A549 cell lysate, NBD C6-ceramide, HPLC fluorescence); type: biochemical; details: GCS activity in A549 cell lysate, 37° C. for 90 minutes
Summary of the method: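 Lysate of A549 cells in 50 mM HEPES pH 7.3 incubated with test compound and NBD C6-ceramide at 37 °C for 90 min; lipids extracted with chloroform/methanol and GlcCer and ceramide peaks quantified by HPLC fluorescence. Activity from GlcCer area fraction, normalised between DMSO and ibiglustat controls.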

Sequence of glucosylceramide synthase (GCS) (Q16739 whole entry, looked up): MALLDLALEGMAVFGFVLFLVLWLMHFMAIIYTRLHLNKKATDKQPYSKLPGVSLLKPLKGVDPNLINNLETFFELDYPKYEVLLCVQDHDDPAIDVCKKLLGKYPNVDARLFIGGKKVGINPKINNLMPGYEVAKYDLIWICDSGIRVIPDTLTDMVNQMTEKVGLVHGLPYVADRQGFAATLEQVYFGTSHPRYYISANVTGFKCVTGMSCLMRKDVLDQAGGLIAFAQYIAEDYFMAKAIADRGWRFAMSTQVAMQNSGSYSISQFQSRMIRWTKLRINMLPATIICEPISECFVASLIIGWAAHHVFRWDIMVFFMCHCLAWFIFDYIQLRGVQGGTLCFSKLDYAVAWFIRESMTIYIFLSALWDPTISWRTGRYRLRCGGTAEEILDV

Compound	IC50 (GM1 production) [nM]	IC50 [1] [nM]
CC(C)Oc1ccc(-c2cc3c(cc2F)C(NC(=O)O[C@@H]2CN4CCC2CC4)C(C)(C)CC3)cc1 (stereo partly drawn) [Example 232, (S)-quinuclidin-3-yl (7-fluoro-6-(4-isopropoxyphenyl)-2,2-dimethyl-1,2,3,4-tetrahydronaphthalen-1-yl)carbamate]	2.7	0.29
COc1ccc(OC)c(-c2ccc3c(c2)CCC2(CC2)C3NC(=O)O[C@@H]2CN3CCC2CC3)c1 (stereo partly drawn) [Example 211, (S)-quinuclidin-3-yl (6′-(2,5-dimethoxyphenyl)-3′,4′-dihydro-1′H-spiro[cyclopropane-1,2′-naphthalen]-1′-yl)carbamate]	147	27.6
CCCOc1ccc(-c2ccc3c(c2)CCC(C)(C)C3NC(=O)O[C@@H]2CN3CCC2CC3)cc1Cl (stereo partly drawn) [Example 141, (S)-quinuclidin-3-yl (6-(3-chloro-4-propoxyphenyl)-2,2-dimethyl-1,2,3,4-tetrahydronaphthalen-1-yl)carbamate]	1.1	1.51
COCOc1cccc(-c2ccc3c(c2)CCC(C)(C)C3NC(=O)O[C@@H]2CN3CCC2CC3)c1 (stereo partly drawn) [Example 114, (S)-quinuclidin-3-yl (6-(3-(methoxymethoxy)phenyl)-2,2-dimethyl-1,2,3,4-tetrahydronaphthalen-1-yl)carbamate]	1.27	1.8
COc1cc(-c2ccc3c(c2)CCC2(CC2)C3NC(=O)O[C@@H]2CN3CCC2CC3)ccc1Cl (stereo partly drawn) [Example 201, (S)-quinuclidin-3-yl (6′-(4-chloro-3-methoxyphenyl)-3′,4′-dihydro-1′H-spiro[cyclopropane-1,2′-naphthalen]-1′-yl)carbamate]	111	33.5
O=C(NC1CCCc2cc(-c3cc(Cl)cc(Cl)c3)ccc21)O[C@@H]1CN2CCC1CC2 (stereo partly drawn) [Example 24, (S)-quinuclidin-3-yl (6-(3,5-dichlorophenyl)-1,2,3,4-tetrahydronaphthalen-1-yl)carbamate]	23.1	9.1
CC1(C)CCc2ccc(-c3ccc(F)cc3)cc2C1NC(=O)O[C@@H]1CN2CCC1CC2 (stereo partly drawn) [Example 151, (S)-quinuclidin-3-yl (7-(4-fluorophenyl)-2,2-dimethyl-1,2,3,4-tetrahydronaphthalen-1-yl)carbamate]	33.4	7.27
COc1cccc(OC)c1-c1ccc2c(c1)CCC(C)(C)C2NC(=O)O[C@@H]1CN2CCC1CC2 (stereo partly drawn) [Example 136, (S)-quinuclidin-3-yl (6-(2,6-dimethoxyphenyl)-2,2-dimethyl-1,2,3,4-tetrahydronaphthalen-1-yl)carbamate]	21.2	9.22
CN(C)c1cccc(-c2ccc3c(c2)CCC(C)(C)C3NC(=O)O[C@@H]2CN3CCC2CC3)c1 (stereo partly drawn) [Example 131, (S)-quinuclidin-3-yl (6-(3-(dimethylamino)phenyl)-2,2-dimethyl-1,2,3,4-tetrahydronaphthalen-1-yl)carbamate]	2.3	1.49
CC1(C)CCc2cc(-c3cc(Cl)ccc3Cl)ccc2C1NC(=O)O[C@@H]1CN2CCC1CC2 (stereo partly drawn) [Example 105, (S)-quinuclidin-3-yl (6-(2,5-dichlorophenyl)-2,2-dimethyl-1,2,3,4-tetrahydronaphthalen-1-yl)carbamate]	0.21	1.39
CC(C)c1ccc(-c2ccc3c(c2)CCC2(CC2)C3NC(=O)O[C@@H]2CN3CCC2CC3)cc1 (stereo partly drawn) [Example 223, (S)-quinuclidin-3-yl (6′-(4-isopropylphenyl)-3′,4′-dihydro-1′H-spiro[cyclopropane-1,2′-naphthalen]-1′-yl)carbamate]	24.1	2.4
O=C(NC1CCCc2cc(-c3cnc4[nH]ccc4c3)ccc21)O[C@@H]1CN2CCC1CC2 (stereo partly drawn) [Example 52, (S)-quinuclidin-3-yl (6-(1H-pyrrolo[2,3-b]pyridin-5-yl)-1,2,3,4-tetrahydronaphthalen-1-yl)carbamate]	22.7	31.8
CCc1cccc(-c2ccc3c(c2)CCCC3NC(=O)O[C@@H]2CN3CCC2CC3)c1 (stereo partly drawn) [Example 38, (S)-quinuclidin-3-yl (6-(3-ethylphenyl)-1,2,3,4-tetrahydronaphthalen-1-yl)carbamate]	316	1.7
O=C(NC1CCCc2ccc(-c3cc(F)ccc3F)cc21)O[C@@H]1CN2CCC1CC2 (stereo partly drawn) [Example 67, (S)-quinuclidin-3-yl (7-(2,5-difluorophenyl)-1,2,3,4-tetrahydronaphthalen-1-yl)carbamate]	38.3	7.3
O=C(NC1CCCc2cc(-c3ccc(Cl)cc3)ccc21)O[C@@H]1CN2CCC1CC2 (stereo partly drawn) [Example 2, (S)-quinuclidin-3-yl (6-(4-chlorophenyl)-1,2,3,4-tetrahydronaphthalen-1-yl)carbamate]	54.5	3.04
COCCOc1cccc(-c2ccc3c(c2)CCC2(CC2)C3NC(=O)O[C@@H]2CN3CCC2CC3)c1 (stereo partly drawn) [Example 195, (S)-quinuclidin-3-yl (6′-(3-(2-methoxyethoxy)phenyl)-3′,4′-dihydro-1′H-spiro[cyclopropane-1,2′-naphthalen]-1′-yl)carbamate]	23.3	5.39

Compound	IC50 (GM1 production) [nM]	IC50 [1] [nM]
O=C(NC1c2ccc(-c3ccc(C4CC4)cc3)cc2CCC12CC2)O[C@@H]1CN2CCC1CC2 (stereo partly drawn) [Example 226, (S)-quinuclidin-3-yl (6′-(4-cyclopropylphenyl)-3′,4′-dihydro-1′H-spiro[cyclopropane-1,2′-naphthalen]-1′-yl)carbamate]	10.8	0.93
COCCOc1cccc(-c2ccc3c(c2)C(NC(=O)O[C@@H]2CN4CCC2CC4)C(C)(C)CC3)c1 (stereo partly drawn) [Example 166, (S)-quinuclidin-3-yl (7-(3-(2-methoxyethoxy)phenyl)-2,2-dimethyl-1,2,3,4-tetrahydronaphthalen-1-yl)carbamate]	392	56.2
O=C(NC1CCCc2cc(-c3ccnc4[nH]ccc34)ccc21)O[C@@H]1CN2CCC1CC2 (stereo partly drawn) [Example 54, (S)-quinuclidin-3-yl (6-(1H-pyrrolo[2,3-b]pyridin-4-yl)-1,2,3,4-tetrahydronaphthalen-1-yl)carbamate]	216	61.8
O=C(NC1CCCc2ccc(-c3cc(F)c(F)cc3F)cc21)O[C@@H]1CN2CCC1CC2 (stereo partly drawn) [Example 66, (S)-quinuclidin-3-yl (7-(2,4,5-trifluorophenyl)-1,2,3,4-tetrahydronaphthalen-1-yl)carbamate]	102	46.9
O=C(NC1c2cc(-c3cccc(Cl)c3)ccc2CCC12CC2)O[C@@H]1CN2CCC1CC2 (stereo partly drawn) [Example 176, (S)-quinuclidin-3-yl (7′-(3-chlorophenyl)-3′,4′-dihydro-1′H-spiro[cyclopropane-1,2′-naphthalen]-1′-yl)carbamate]	211	14.9
O=C(NC1CCCc2cc(-c3cc(F)cc(F)c3)ccc21)O[C@@H]1CN2CCC1CC2 (stereo partly drawn) [Example 17, (S)-quinuclidin-3-yl (6-(3,5-difluorophenyl)-1,2,3,4-tetrahydronaphthalen-1-yl)carbamate]	37	5.75
CCCCOc1c(C)cc(-c2ccc3c(c2)CCC(C)(C)C3NC(=O)O[C@@H]2CN3CCC2CC3)cc1C (stereo partly drawn) [Example 147, (S)-quinuclidin-3-yl (6-(4-butoxy-3,5-dimethylphenyl)-2,2-dimethyl-1,2,3,4-tetrahydronaphthalen-1-yl)carbamate]	0.1	1
O=C(NC1CCCc2cc(-c3ccncc3F)ccc21)O[C@@H]1CN2CCC1CC2 (stereo partly drawn) [Example 49, (S)-quinuclidin-3-yl (6-(3-fluoropyridin-4-yl)-1,2,3,4-tetrahydronaphthalen-1-yl)carbamate]	412	35
O=C(NC1c2cc(-c3ccccc3Cl)ccc2CCC12CC2)O[C@@H]1CN2CCC1CC2 (stereo partly drawn) [Example 180, (S)-quinuclidin-3-yl (7′-(2-chlorophenyl)-3′,4′-dihydro-1′H-spiro[cyclopropane-1,2′-naphthalen]-1′-yl)carbamate]	99.1	9.54
CC(C)Oc1cccc(-c2ccc3c(c2)CCC(C)(C)C3NC(=O)O[C@@H]2CN3CCC2CC3)c1 (stereo partly drawn) [Example 132, (S)-quinuclidin-3-yl (6-(3-isopropoxyphenyl)-2,2-dimethyl-1,2,3,4-tetrahydronaphthalen-1-yl)carbamate]	2	1.16
CCCCc1ccc(-c2ccc3c(c2)CCCC3NC(=O)O[C@@H]2CN3CCC2CC3)cc1 (stereo partly drawn) [Example 33, (S)-quinuclidin-3-yl (6-(4-butylphenyl)-1,2,3,4-tetrahydronaphthalen-1-yl)carbamate]	499	3.95
O=C(NC1CCCc2ccc(-c3ccncc3)cc21)O[C@@H]1CN2CCC1CC2 (stereo partly drawn) [Example 72, (S)-quinuclidin-3-yl (7-(pyridin-4-yl)-1,2,3,4-tetrahydronaphthalen-1-yl)carbamate]	116	66
COCCOc1ccccc1-c1ccc2c(c1)CCC1(CC1)C2NC(=O)O[C@@H]1CN2CCC1CC2 (stereo partly drawn) [Example 196, (S)-quinuclidin-3-yl (6′-(2-(2-methoxyethoxy)phenyl)-3′,4′-dihydro-1′H-spiro[cyclopropane-1,2′-naphthalen]-1′-yl)carbamate]	25.2	6.02
CC1(C)CCc2cc(-c3ccc(F)c(F)c3)ccc2C1NC(=O)O[C@@H]1CN2CCC1CC2 (stereo partly drawn) [Example 100, (S)-quinuclidin-3-yl (6-(3,4-difluorophenyl)-2,2-dimethyl-1,2,3,4-tetrahydronaphthalen-1-yl)carbamate]	2.59	1.78
CC1(C)CCc2cc(-c3cccc(F)c3)ccc2C1NC(=O)O[C@@H]1CN2CCC1CC2 (stereo partly drawn) [Example 90, (S)-quinuclidin-3-yl (6-(3-fluorophenyl)-2,2-dimethyl-1,2,3,4-tetrahydronaphthalen-1-yl)carbamate]	4.89	1.01
